Test results as given in patent US11434479B2, “Sialic acid binding polypeptide” (priority 2017, dated 2022).

Biological target: T1, Streptococcus pneumoniae NanB fragment (residues 30-697, SEQ ID NO:4) variant Sia-3S1, R193A, D270Q, A538V, E541D (Streptococcus pneumoniae serotype 4, UniProt Q54727, A538V/D270Q/E541D/R193A)
T1 construct: exemplified by a NanB fragment (residues 30-697); made in house; host or cells: E. coli
T1 sequence (Q54727 30-692 R193A/D270Q/A538V/E541D): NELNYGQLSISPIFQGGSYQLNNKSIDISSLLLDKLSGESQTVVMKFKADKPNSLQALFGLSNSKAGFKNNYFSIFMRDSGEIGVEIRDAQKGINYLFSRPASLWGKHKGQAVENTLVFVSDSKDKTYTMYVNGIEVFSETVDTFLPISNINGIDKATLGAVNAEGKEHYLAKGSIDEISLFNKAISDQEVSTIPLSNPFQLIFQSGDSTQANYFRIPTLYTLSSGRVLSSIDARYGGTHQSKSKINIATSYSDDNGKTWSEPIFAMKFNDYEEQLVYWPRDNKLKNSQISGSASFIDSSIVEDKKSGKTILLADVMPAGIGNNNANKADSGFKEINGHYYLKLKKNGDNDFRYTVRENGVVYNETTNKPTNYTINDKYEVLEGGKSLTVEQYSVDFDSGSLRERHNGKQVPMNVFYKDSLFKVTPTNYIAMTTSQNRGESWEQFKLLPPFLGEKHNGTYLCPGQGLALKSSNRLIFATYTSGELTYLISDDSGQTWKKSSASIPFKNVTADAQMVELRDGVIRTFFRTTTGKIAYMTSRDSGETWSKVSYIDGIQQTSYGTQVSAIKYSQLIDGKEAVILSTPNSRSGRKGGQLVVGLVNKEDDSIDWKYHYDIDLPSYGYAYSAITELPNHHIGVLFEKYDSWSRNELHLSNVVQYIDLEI
Assay: Bio-layer Interferometry (BLI) binding to immobilized 3′SL and 6′SL
Settings: in words, well-defined buffer conditions (10 mM EPPS, 10 or 25 mM NaCl, pH 7.5)
Method: FIGS. 14A and […] show BLI sensograms for the binding of Sia-3S1 (analyte) under different buffer conditions to oligosaccharides (immobilized ligands): 3′SL=α2,3-sialyllactose, 6′SL=α2,6-sialyllactose.
The flowchart presented in FIG. 2 outlines schematically the methods employed in Example I and II to screen, optimize and select the Lectenz® candidates. The specificity and affinity of potential Lectenz® candidates is evaluated through structurally-guided site-specific and/or site-saturation mutagenesis assays designed to enable the selection of optimal clones. Bio-layer Interferometry (BLI) is used to determine the binding kinetics and affinities for binding to glycans and glycoproteins. Affinity chromatography is performed by immobilizing the Lectenz® candidates in a column format to evaluate their ability to fractionate sialylated- and asialo-glycans and glycoconjugates. All promising Lectenz® candidates are screened against the glycan array at the CFG, which currently contains over 600 O- and N-linked glycans.
The methods are as described in Example I.

CC(=O)N[C@H]1[C@H]([C@H](O)[C@H](O)CO)O[C@@](O[C@H]2[C@@H](O)[C@@H](CO)O[C@@H](O[C@H]3[C@H](O)[C@@H](O)C(O)O[C@@H]3CO)[C@@H]2O)(C(=O)O)C[C@@H]1O (stereo partly drawn) [3′SL, α2,3-sialyllactose]
affinity: high and preferential affinity for 3′SL over 6′SL
